From patent publication US20150258106A1, “METHODS FOR ACUTE AND LONG-TERM TREATMENT OF SUBSTANCE ABUSE” (DEMERX, INC., priority 2014, published 2015)
Where two headings read alike, the source gives them in different places.

Assays:
Type in all cases: in vivo, human
[1] = Pharmacokinetics in opioid-dependent patients (Phase IB study); conditions: for AUC(0-t) / AUC / half-life / Tmax / Vd/F / Cmax: human, serum, opioid-dependent patients
Method: (§1) Three cohorts of nine (9) subjects (6 administered noribogaine and 3 administered placebo in each cohort) were evaluated for tolerability, pharmacokinetics, and efficacy. Cohort 1 received a single dose of 60 mg noribogaine or placebo. Cohort 2 received a single dose of 120 mg noribogaine or placebo. Cohort 3 received a single dose of 180 mg noribogaine or placebo. […] Headaches were frequent in the placebo and 60 mg noribogaine treatment groups, but were attenuated in the 120 mg and 180 mg dose groups.

[2] = tested on: opioid-dependent participants; assay: Treatment emergent adverse events in opioid-dependent participants (randomized, placebo-controlled, double-blind trial)
Method: The efficacy of noribogaine in humans was evaluated in opioid-dependent participants in a randomized, placebo-controlled, double-blind trial. […] See U.S. application Ser. No. 14/214,157, filed Mar. 14, 2014 and Ser. No. 14/346,655, filed Mar. 21, 2014, which are incorporated herein by reference in their entireties.
as §1

[3] = tested on: healthy, drug-free male volunteers; assay: Pupillometry (pupillary miosis) in healthy volunteers
Method: Pulse oximetry and capnography data were collected continuously using a GE Carescape B650 monitoring system from 2 hours prior to dosing and until six hours after dosing, and thereafter at 12, 24, 48 and 72 hours post-dosing. […] Pupillary miosis was assessed by pupillometry.
(§2) Summary statistics (means, standard deviations, and coefficients of variation) were determined for each dose group for safety laboratory test data, ECG and pharmacokinetic parameters, and pharmacodynamic variables. Categorical variables were analysed using counts and percentages. Dose-proportionality of AUC and Cmax was assessed using linear regression. The effect of dose on pharmacodynamic parameter values over time was assessed using two-factor analysis of variance (ANOVA). Pairwise comparisons (with Tukey-Kramer adjustment) between each dose group to the placebo were conducted at each time point using the least squares estimates obtained from the ANOVA, using SAS Proc Mixed (SAS ver 6.0).

[4] = tested on: healthy, drug-free male volunteers; assay: Cold pressor test (analgesic effect) in healthy volunteers
Method: as §2
Analgesic effect was assessed based on duration of hand immersion in ice water and on visual analog scale (VAS) pain scores upon hand removal from the water bath.
Safety and tolerability of noribogaine were tested in the group of volunteers from Example 1. […] Safety evaluations included clinical monitoring, recording of adverse events (AEs), safety laboratory tests, vital signs, ECG telemetry from −2 h to 6 h after dosing, and 12-lead electrocardiograms (ECGs) up to 216 hours post-dosing.

[5] = opioid-dependent patients, 60, 120 or 180 mg single dose
[6] = opioid-dependent patients, single 60 mg dose, N = 6
[7] = opioid-dependent patients, single 120 mg dose, N = 6
[8] = opioid-dependent patients, single 180 mg dose, N = 6
[9] = after adjusting for baseline differences, p>0.9
[10] = healthy volunteers, 3-60 mg single oral dose

Structure (SMILES): CCC1CC2CC3c4[nH]c5ccc(O)cc5c4CCN(C2)C13 (stereo not shown) [Noribogaine]
- AUC(0-t) ([1]; 60 mg, Cohort 1 (60 mg), mean ± SD, read-out: AUC(0-T)): 2020 ± 614 ng·h/mL
- AUC ([1]; 60 mg, Cohort 1 (60 mg), mean ± SD, read-out: AUC(0-¥)): 2060 ± 609 ng·h/mL
- half-life ([1]; 60 mg, Cohort 1 (60 mg), mean ± SD, read-out: Half-life (converted)): 29.3 ± 7.28 h
- Tmax ([1]; 60 mg, Cohort 1 (60 mg), mean ± SD, read-out: Tmax): 3.59 ± 0.92 h
- Vd/F ([1]; 60 mg, Cohort 1 (60 mg), mean ± SD, read-out: Vd/F): 1440 ± 854 L
- AUC(0-t) ([1]; 60 mg, Cohort 1 (60 mg), range, read-out: AUC(0-T) [range]): 1090 to 2530 ng·h/mL
- AUC ([1]; 60 mg, Cohort 1 (60 mg), range, read-out: AUC(0-¥) [range]): 1120 to 2550 ng·h/mL
- half-life ([1]; 60 mg, Cohort 1 (60 mg), range, read-out: Half-life [range]): 18.3 to 37.3 h
- Tmax ([1]; 60 mg, Cohort 1 (60 mg), range, read-out: Tmax [range]): 2.5 to 5 h
- Vd/F ([1]; 60 mg, Cohort 1 (60 mg), range, read-out: Vd/F [range]): 620 to 2770 L
- Cmax ([1]; 60 mg, Cohort 1 (60 mg), mean ± SD, read-out: Cmax): 81.6 ± 23.8 ng/mL
- Cmax ([1]; 60 mg, Cohort 1 (60 mg), range, read-out: Cmax [range]): 41.3 to 113 ng/mL
- AUC(0-t) ([1]; 120 mg, Cohort 2 (120 mg), mean ± SD, read-out: AUC(0-T)): 3230 ± 1540 ng·h/mL
- AUC ([1]; 120 mg, Cohort 2 (120 mg), mean ± SD, read-out: AUC(0-¥)): 3280 ± 1580 ng·h/mL
- half-life ([1]; 120 mg, Cohort 2 (120 mg), mean ± SD, read-out: Half-life (converted)): 30.4 ± 9.14 h
- Tmax ([1]; 120 mg, Cohort 2 (120 mg), mean ± SD, read-out: Tmax): 2.99 ± 1.23 h
- Vd/F ([1]; 120 mg, Cohort 2 (120 mg), mean ± SD, read-out: Vd/F): 2110 ± 1640 L
- AUC(0-t) ([1]; 120 mg, Cohort 2 (120 mg), range, read-out: AUC(0-T) [range]): 1560 to 5640 ng·h/mL
- AUC ([1]; 120 mg, Cohort 2 (120 mg), range, read-out: AUC(0-¥) [range]): 1600 to 5770 ng·h/mL
- half-life ([1]; 120 mg, Cohort 2 (120 mg), range, read-out: Half-life [range]): 21.9 to 48.3 h
- Tmax ([1]; 120 mg, Cohort 2 (120 mg), range, read-out: Tmax [range]): 0.98 to 4.02 h
- Vd/F ([1]; 120 mg, Cohort 2 (120 mg), range, read-out: Vd/F [range]): 824 to 5240 L
- Cmax ([1]; 120 mg, Cohort 2 (120 mg), mean ± SD, read-out: Cmax): 173 ± 30.7 ng/mL
- Cmax ([1]; 120 mg, Cohort 2 (120 mg), range, read-out: Cmax [range]): 139 to 230 ng/mL
- AUC(0-t) ([1]; 180 mg, Cohort 3 (180 mg), mean ± SD, read-out: AUC(0-T)): 6520 ± 2910 ng·h/mL
- AUC ([1]; 180 mg, Cohort 3 (180 mg), mean ± SD, read-out: AUC(0-¥)): 6890 ± 3490 ng·h/mL
- half-life ([1]; 180 mg, Cohort 3 (180 mg), mean ± SD, read-out: Half-life (converted)): 23.9 ± 5.54 h
- Tmax ([1]; 180 mg, Cohort 3 (180 mg), mean ± SD, read-out: Tmax): 4.41 ± 1.8 h
- Vd/F ([1]; 180 mg, Cohort 3 (180 mg), mean ± SD, read-out: Vd/F): 1030 ± 365 L
- AUC(0-t) ([1]; 180 mg, Cohort 3 (180 mg), range, read-out: AUC(0-T) [range]): 3720 to 10400 ng·h/mL
- AUC ([1]; 180 mg, Cohort 3 (180 mg), range, read-out: AUC(0-¥) [range]): 3730 to 12300 ng·h/mL
- half-life ([1]; 180 mg, Cohort 3 (180 mg), range, read-out: Half-life [range]): 19.3 to 34.9 h
- Tmax ([1]; 180 mg, Cohort 3 (180 mg), range, read-out: Tmax [range]): 3 to 8 h
- Vd/F ([1]; 180 mg, Cohort 3 (180 mg), range, read-out: Vd/F [range]): 581 to 1610 L
- Cmax ([1]; 180 mg, Cohort 3 (180 mg), mean ± SD, read-out: Cmax): 268 ± 46.9 ng/mL
- Cmax ([1]; 180 mg, Cohort 3 (180 mg), range, read-out: Cmax [range]): 205 to 338 ng/mL
- Maximum serum concentration of noribogaine (Cmax) versus dose ([1]; opioid-dependent patients, 60, 120, 180 mg): increased in a dose-dependent manner
- Headaches ([2]; opioid-dependent patients, 60 mg treatment group): frequent
- Headaches ([2]; opioid-dependent patients, 120 mg dose group): attenuated
- Headaches ([2]; opioid-dependent patients, 180 mg dose group): attenuated
- adverse effects of noribogaine observed [2, 5]: Few adverse effects
- hallucinatory effects [2, 5]: no hallucinatory effects
- Treatment Emergent Adverse Events: Catheter Site Infection [2, 6]: 0
- Treatment Emergent Adverse Events: Catheter Site Pain [2, 6]: 0
- Treatment Emergent Adverse Events: Catheter Site Related Reaction [2, 6]: 0
- Treatment Emergent Adverse Events: Cellulitis [2, 6]: 0
- Treatment Emergent Adverse Events: Diarrhoea [2, 6]: 0
- Treatment Emergent Adverse Events: Dry Mouth [2, 6]: 0
- Treatment Emergent Adverse Events: Ear and Labyrinth Disorders [2, 6]: 0
- Treatment Emergent Adverse Events: Epistaxis [2, 6]: 0
- Treatment Emergent Adverse Events: Euphoric Mood [2, 6]: 0
- Treatment Emergent Adverse Events: General Disorders and Administration Site Conditions [2, 6]: 0
- Treatment Emergent Adverse Events: Hyperaesthesia [2, 6]: 0
- Treatment Emergent Adverse Events: Infections and Infestations [2, 6]: 0
- Treatment Emergent Adverse Events: Limb Discomfort [2, 6]: 0
- Treatment Emergent Adverse Events: Malaise [2, 6]: 0
- Treatment Emergent Adverse Events: Nausea [2, 6]: 0
- Treatment Emergent Adverse Events: Oropharyngeal Pain [2, 6]: 0
- Treatment Emergent Adverse Events: Pseudoparalysis [2, 6]: 0
- Treatment Emergent Adverse Events: Respiratory, Thoracic and Mediastinal Disorders [2, 6]: 0
- Treatment Emergent Adverse Events: Rhinorrhoea [2, 6]: 0
- Treatment Emergent Adverse Events: Skin Discomfort [2, 6]: 0
- Treatment Emergent Adverse Events: Skin Irritation [2, 6]: 0
- Treatment Emergent Adverse Events: Skin and Subcutaneous Tissue Disorders [2, 6]: 0
- Treatment Emergent Adverse Events: Somnoience [2, 6]: 0
- Treatment Emergent Adverse Events: Tinnitus [2, 6]: 0
- Treatment Emergent Adverse Events: Tremor [2, 6]: 0
- Treatment Emergent Adverse Events: Urinary Tract Infection [2, 6]: 0
- Treatment Emergent Adverse Events: Vomiting [2, 6]: 0
- Treatment Emergent Adverse Events: Back Pain [2, 7]: 0
- Treatment Emergent Adverse Events: Catheter Site Infection [2, 7]: 0
- Treatment Emergent Adverse Events: Catheter Site Related Reaction [2, 7]: 0
- Treatment Emergent Adverse Events: Depressed Mood [2, 7]: 0
- Treatment Emergent Adverse Events: Dry Eye [2, 7]: 0
- Treatment Emergent Adverse Events: Dyspepsia [2, 7]: 0
- Treatment Emergent Adverse Events: Euphoric Mood [2, 7]: 0
- Treatment Emergent Adverse Events: Limb Discomfort [2, 7]: 0
- Treatment Emergent Adverse Events: Malaise [2, 7]: 0
- Treatment Emergent Adverse Events: Musculoskeletal and Connective Tissue Disorders [2, 7]: 0
- Treatment Emergent Adverse Events: Psychiatric Disorders [2, 7]: 0
- Treatment Emergent Adverse Events: Somnoience [2, 7]: 0
- Treatment Emergent Adverse Events: Urinary Tract Infection [2, 7]: 0
- Treatment Emergent Adverse Events: Catheter Site Infection [2, 8]: 0
- Treatment Emergent Adverse Events: Catheter Site Pain [2, 8]: 0
- Treatment Emergent Adverse Events: Depressed Mood [2, 8]: 0
- Treatment Emergent Adverse Events: Diarrhoea [2, 8]: 0
- Treatment Emergent Adverse Events: Dry Eye [2, 8]: 0
- Treatment Emergent Adverse Events: Dyspepsia [2, 8]: 0
- Treatment Emergent Adverse Events: Ear and Labyrinth Disorders [2, 8]: 0
- Treatment Emergent Adverse Events: Epistaxis [2, 8]: 0
- Treatment Emergent Adverse Events: Euphoric Mood [2, 8]: 0
- Treatment Emergent Adverse Events: Hyperaesthesia [2, 8]: 0
- Treatment Emergent Adverse Events: Malaise [2, 8]: 0
- Treatment Emergent Adverse Events: Oropharyngeal Pain [2, 8]: 0
- Treatment Emergent Adverse Events: Pseudoparalysis [2, 8]: 0
- Treatment Emergent Adverse Events: Psychiatric Disorders [2, 8]: 0
- Treatment Emergent Adverse Events: Respiratory, Thoracic and Mediastinal Disorders [2, 8]: 0
- Treatment Emergent Adverse Events: Rhinorrhoea [2, 8]: 0
- Treatment Emergent Adverse Events: Skin Discomfort [2, 8]: 0
- Treatment Emergent Adverse Events: Skin Irritation [2, 8]: 0
- Treatment Emergent Adverse Events: Skin and Subcutaneous Tissue Disorders [2, 8]: 0
- Treatment Emergent Adverse Events: Somnoience [2, 8]: 0
- Treatment Emergent Adverse Events: Tinnitus [2, 8]: 0
- Treatment Emergent Adverse Events: Tremor [2, 8]: 0
- pupil diameter, each dose group compared with placebo by ANOVA [3, 9]: no statistically significant differences
- pupillary constriction [3, 10]: no evidence of pupillary constriction
- VAS pain scores upon hand removal, each dose group compared with placebo by ANOVA ([4]; after adjusting for baseline differences, p=0.17): no statistically significant differences
- duration of hand immersion in ice water, each dose group compared with placebo by ANOVA [4, 9]: no statistically significant differences
- analgesic effect in the cold pressor test [4, 10]: no analgesic effect
